Columns and labels:
contaminated slides = test: Continuous disinfection of contaminated slides by vapor emitter; assay type: cell-based; details: 6000 ppm sodium hypochlorite at pH 9; contaminated slides exposed and evaluated every couple of days
From the text: Another approach is increasing the pH of the bleach solution to reduce chlorine. See in the Examples Section below. An isobaric line for constant hypochlorous acid vapor pressure can be calculated from literature values of various equilibrium constants for various concentrations of sodium hypochlorite and pH. Thus, one can maintain the performance of a desired concentration of hypochlorous acid but eliminate chlorine by increasing pH and hypochlorite concentration according to the isobaric line. […] The higher bleach concentrations also allow for smaller volumes of solution since the volume of solution required to provide a certain number of moles of hypochlorous acid decreases as the concentration increases. […] This allows much longer product lifetimes for an emitter. […] In one embodiment, the sodium hypochlorite at about pH 9 is gelled using clay.

Klebsiella species = test: Ceramic tile disinfection with powdered hypochlorite; details: tile sprayed with 2% solution; contact time four minutes (positive control)
Escherica coli = test: as above; details: tile treated with 2% NaOCl (positive control)
Staphococcus species = test: as above; details: tile treated with 2% NaOCl (positive control)
[1] = Stability of thickened dilute hypochlorite at 120° F.; details: compared with thickeners of Table XXIV
Dust mite allergen = details: ELISA test after treatment for 1 hour; low concentration; cited from earlier work

With `[Na+].[O-]Cl` [NaOCl, sodium hypochlorite] the “duration of continuous disinfection” value (contaminated slides) was “continuous disinfection for more than a month”, the “bacterial growth on agar plate” value (Klebsiella species) was “no bacterial growth” and the “bacterial growth on agar plate” value (Escherica coli) was “no growth”. The “bacterial growth on agar plate” value (Staphococcus species) was “no growth”.
For `CCCCCCCCCCCCOS(=O)(=O)[O-].[Na+]` [sodium lauryl sulfate], the “stability of dilute hypochlorite with surfactant, by comparison” value [1] was “less stable than Vangel ES®”.
In the case of `OCl` [hypochlorite ions], the “reduction of dust mite allergen binding” value (Dust mite allergen) is given as “up to 82%”.
